Laboratory results taken from ChEMBL document CHEMBL4196052, “Rational modifications on a benzylidene-acrylohydrazide antiviral scaffold, synthesis and evaluation of bioactivity against Chikungunya virus” (Eur J Med Chem, 2018).

What was measured:
[1] = Cytotoxicity against African green monkey Vero cells by MTS/PMS assay; format: cell-based; conditions: chlorocebus sabaeus
[2] = Selectivity index, ratio of CC50 for African green monkey Vero cells to EC50 for Chikungunya virus Indian Ocean strain 899 infected in African green monkey Vero cells; format: toxicity; conditions: read-out: Ratio CC50/EC50
[3] = system: Chikungunya virus; test: Antiviral activity against Chikungunya virus Indian Ocean strain 899 infected in African green monkey Vero cells assessed as inhibition of viral-induced cytopathic effect by measuring concentration required for maximum activity measured on day 5 post infection by MTS/PMS assay; format: functional, Indian Ocean 899
[4] = system: Chikungunya virus; test: Antiviral activity against Chikungunya virus Indian Ocean strain 899 infected in African green monkey Vero cells assessed as inhibition of viral-induced cytopathic effect measured on day 5 post infection by MTS/PMS assay; format: functional, organism-based, Indian Ocean 899; conditions: for EC50 / EC90: Chikungunya virus, Indian Ocean 899, Vero, 120 h

Structure (SMILES)	CC50 [1] [µM]	selectivity ratio [2]	Activity [3] [µM]	Imax [4] [%]	EC50 [4] [µM]	EC90 [4] [µM]
Cc1ccc(/C=N/NC(=O)/C=C/c2ccc(-c3ccccc3)cc2)cc1	> 294	> 1.3	294	78	230	> 294
Cc1ccc(/C=N/NC(=O)/C=C/c2ccc(C(F)(F)F)cc2)cc1	203	2.1	99	61	96.3	> 150
Cc1ccc(-c2cn(CCc3ccccc3)nn2)cc1	200	1.6	163	74	122	–
CC(C)(C)c1ccc(C(=O)CC(=O)N/N=C/c2ccc(O)cc2)cc1	14.7	2.3	7.9	87	7.2	8
Oc1ccc(/C=N/NC(=S)NCCc2ccccc2)cc1	87.8	1.8	51	67	48.3	–
CC(C)(C)c1ccc(CCc2nnc(-c3ccc(O)cc3)o2)cc1	191	1.8	103	69	108	> 103
C/C(=N\NC(=O)N/C=C/c1ccc(C(C)(C)C)cc1)c1ccc(C2CCCCC2)cc1	123	2.9	79	90	42.3	78.8
CCOc1ccc(/C=N/NC(=S)NCCc2ccccc2)cc1OCC	109	18	9.3	90	5.9	9.8
C/C(=N\NC(=O)c1nc2ccccc2[nH]1)c1ccc(C2CCCCC2)cc1	6.2	2.4	4.3	83	2.6	–
Cc1ccc(/C=N/NC(=O)N/C=C/c2ccc(C(C)(C)C)cc2)cc1	192	0.8	187	50	246	> 298
CC(C)(C)c1ccc(/C=C/NC(=O)N/N=C/c2ccc(O)cc2)cc1	10.4	1.9	7.4	89	5.6	7.5
Cc1ccc(/C=N/NC(=O)/C=C/c2ccc(C(C)C)cc2)cc1	25	1	20	50	25.9	–
CCOc1ccc(-c2nnc(CCc3ccc(C(C)(C)C)cc3)o2)cc1OCC	15.5	1.2	13.5	61	12.4	–
C/C(=N\NC(=S)NCCc1ccccc1)c1ccc(C2CCCCC2)cc1	52.9	12.2	6	90	4.3	5.9
